Read-outs that look alike come from different tables or passages of the source.
Biological target: T1, recombinant full-length HSET (Homo sapiens, UniProt Q9BW19)
T1 construct: 5 nM full-length human N-terminal His-tag HSET; His-tag (N)
T1 sequence (Q9BW19 1-673): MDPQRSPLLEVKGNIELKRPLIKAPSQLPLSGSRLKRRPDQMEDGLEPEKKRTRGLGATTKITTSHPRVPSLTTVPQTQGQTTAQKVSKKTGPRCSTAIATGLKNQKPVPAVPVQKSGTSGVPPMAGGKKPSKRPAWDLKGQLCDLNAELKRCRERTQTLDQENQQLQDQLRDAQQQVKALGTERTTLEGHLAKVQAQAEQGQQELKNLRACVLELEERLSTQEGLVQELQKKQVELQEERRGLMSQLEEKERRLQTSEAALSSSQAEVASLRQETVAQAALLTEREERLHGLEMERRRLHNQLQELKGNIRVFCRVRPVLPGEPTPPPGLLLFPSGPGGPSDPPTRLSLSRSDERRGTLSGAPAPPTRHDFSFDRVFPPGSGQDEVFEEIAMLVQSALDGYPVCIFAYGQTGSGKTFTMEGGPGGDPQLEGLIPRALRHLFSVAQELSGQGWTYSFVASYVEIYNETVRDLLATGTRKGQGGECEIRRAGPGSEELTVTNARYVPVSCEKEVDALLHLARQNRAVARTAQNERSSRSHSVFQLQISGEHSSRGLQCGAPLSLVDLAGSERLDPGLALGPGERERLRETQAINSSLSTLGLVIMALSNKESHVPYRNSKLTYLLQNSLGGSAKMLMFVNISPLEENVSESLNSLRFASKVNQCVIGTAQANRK
Test: ADP-Glo HSET assay (3 μM ATP), microtubule-stimulated ATPase
Assay type: biochemical
Details: for HSET inhibitory activity (in words): HSET ADP-Glo
Protocol: The HSET or Eg5 ATPase activity was measured using the ADP-Glo Kinase Assay kit (Promega, V9102). The assays were run using final concentrations of 5 nM full-length human N-terminal His-tag HSET or 4 nM GST-tagged Eg5 motor domain protein (Cytoskeleton, EG01) and an assay buffer containing 20 mM HEPES pH 6.8, 10 mM MgCl2, 0.25 mM EGTA, 0.4 mM Triton X-100, and 1 mM DTT. Preformed microtubules (Universal Biologicals Cambridge, bovine MT001-XL, or porcine MT002-XL), which were reconstituted in 15 mM PIPES pH 7, 1 mM MgCl2, and 20 μM paclitaxel, were present at a final assay concentration of 70 μg/mL. A reaction volume of 5 μL was used in Proxiplate 384 plus white assay plates (PerkinElmer, 6008280). To measure compound inhibition, 100 nL of compound dissolved in DMSO or DMSO alone was preincubated with the HSET and microtubules for 10 min before 3 μM Ultra-Pure ATP was added to start the ATPase reaction for the 3 μM ATP HSET assay. For the 500 μM ATP HSET assay, the addition of 500 μM Ultra-Pure ATP was used. For the Eg5 ATPase assay, 4.8 μM Ultra-Pure ATP was used. All reactions were incubated at 25 °C for 80 min and then stopped by the addition of 5 μL of the ADP-Glo reagent. 10 μL of Kinase Detection Reagent was then added after a further 45 min of incubation. The luminescence was read after 45 min on a PheraStar FSX plate reader (BMG Labtech). The data processing was performed using Dotmatics Studies software package. Percentage inhibition was determined based on normalization to high controls (0% inhibition, all reagents with 100 nL of DMSO alone) and low controls (100% inhibition […], without HSET). The IC50 values for each compound were determined using a four-parameter logistic curve fit of % inhibition versus concentration.

[1] = LE = −1.4Log(IC50 [M])/number of non-hydrogen atoms (Table 1)
[2] = LLE = −Log(IC50 [M]) – cLogP (MoKa) (Table 1)
[3] = preformed microtubules, 3 μM ATP, mean (±SD) n ≥ 3, >200 from a single determination (Table 1), read-out: HSET ADP-Glo IC50
[4] = LE = −1.4Log(IC50 [M])/number of non-hydrogen atoms (Table 2)
[5] = LLE = −Log(IC50 [M]) – cLogP (MoKa) (Table 2)
[6] = preformed microtubules, 3 μM ATP, mean (±SD) n ≥ 3, >200 from a single determination (Table 2), read-out: HSET ADP-Glo IC50

CCOC(=O)c1sc(NC(=O)CCNC(=O)c2ccc(C)cc2)nc1C [Compound 4, Ethyl 4-Methyl-2-(3-(4-methylbenzamido)propanamido)thiazole-5-carboxylate]
IC50 (3 μM ATP, curve plateaued, read-out: mean concentration observed at 50% inhibition (HSET ADP-Glo)): 13 µM
LE [1]: 0.29
LLE [2]: 2.2
IC50 [3]: 4.73 µM

CCOC(=O)c1cnc(NC(=O)CCNC(=O)c2cccc(-c3noc(C)n3)c2)s1 [Compound 19, Ethyl 2-(3-(3-(5-Methyl-1,2,4-oxadiazol-3-yl)benzamido)propanamido)thiazole-5-carboxylate]
inhibition at 4 µM (4μM compound, 3 μM ATP): 50%
fold reduction in HSET potency (relative to 13): 65 fold
IC50 (supplementary CSV, read-out: HSET ADP-Glo IC50): > 4 µM

CCOC(=O)c1sc(C(=O)NCCNC(=O)c2cccc(-c3noc(C)n3)c2)nc1C [Compound 25, Ethyl 4-Methyl-2-((2-(3-(5-methyl-1,2,4-oxadiazol-3-yl)benzamido)ethyl)carbamoyl)thiazole-5-carboxylate]
LE [4]: 0.29
LLE [5]: 3.9
IC50 [6]: 0.405 µM
fold reduction in HSET potency (relative to 13): six-fold

CCOC(=O)c1sc(NC(=O)CCNC(=O)c2cccc(-c3n[nH]c(C)n3)c2)nc1C [Compound 15, Ethyl 4-Methyl-2-(3-(3-(5-methyl-1H-1,2,4-triazol-3-yl)benzamido)propanamido)thiazole-5-carboxylate]
HSET inhibitory activity (in words): eliminated potency
IC50 [3]: > 200 µM

CCOC(=O)c1sc(NC(=O)CCNC(=O)c2ccccc2)nc1C [Compound 9, Ethyl 2-(3-Benzamidopropanamido)-4-methylthiazole-5-carboxylate]
HSET inhibitory activity (in words): ablated the activity
IC50 [3]: > 200 µM

CCOC(=O)c1nc(NC(=O)CCNC(=O)c2cccc(-c3noc(C)n3)c2)cn1C [Compound 29, Ethyl 1-Methyl-4-(3-(3-(5-methyl-1,2,4-oxadiazol-3-yl)benzamido)propanamido)-1H-imidazole-2-carboxylate]
HSET inhibitory activity (in words): no HSET inhibition
IC50 [6]: > 200 µM

CCOC(=O)c1sc(NC(=O)C[C@H](C)NC(=O)c2cccc(-c3noc(C)n3)c2)nc1C [Compound 30, Ethyl 4-Methyl-2-[[(3S)-3-[[3-(5-methyl-1,2,4-oxadiazol-3-yl)benzoyl]amino]butanoyl]amino]thiazole-5-carboxylate]
LE [4]: 0.32
LLE [5]: 4.1
IC50 [6]: 0.061 µM

CCOC(=O)c1sc(NC(=O)CCNC(=O)c2cccc(-c3nc(C)no3)c2)nc1C [Compound 17, Ethyl 4-Methyl-2-(3-(3-(3-methyl-1,2,4-oxadiazol-5-yl)benzamido)propanamido)thiazole-5-carboxylate]
LE [1]: 0.32
LLE [2]: 4.3
IC50 [3]: 0.101 µM

CCNC(=O)c1sc(NC(=O)CCNC(=O)c2cccc(C)c2)nc1C [Compound 7, N-Ethyl-4-methyl-2-(3-(3-methylbenzamido)propanamido)thiazole-5-carboxamide]
HSET inhibitory activity (in words): no activity
IC50 [3]: > 200 µM

CCCOC(=O)c1cc(NC(=O)CCNC(=O)c2cccc(-c3noc(C)n3)c2)nn1C [Compound 28, Propyl 1-Methyl-3-(3-(3-(5-methyl-1,2,4-oxadiazol-3-yl)benzamido)propanamido)-1H-pyrazole-5-carboxylate]
LE [4]: 0.30
LLE [5]: 4.7
IC50 [6]: 0.157 µM

CCOC(=O)c1sc(NC(=O)CCNC(=O)c2cccc(-c3ccccc3)c2)nc1C [Compound 12, Ethyl 2-(3-([1,1′-Biphenyl]-3-carboxamido)propanamido)-4-methylthiazole-5-carboxylate]
LE [1]: 0.25
LLE [2]: 1.2
IC50 [3]: 2.44 µM

CCOC(=O)c1sc(NC(=O)CNC(=O)c2cccc(-c3noc(C)n3)c2)nc1C [Compound 21, Ethyl 4-Methyl-2-(2-(3-(5-methyl-1,2,4-oxadiazol-3-yl)benzamido)acetamido)thiazole-5-carboxylate]
HSET inhibitory activity (in words): abolished the HSET activity
IC50 [6]: > 200 µM

CCOC(=O)c1sc(NC(=O)CCNC(=O)C2CCCC(C)C2)nc1C (centres unmarked) [Compound 10, Ethyl 4-Methyl-2-(3-(3-methylcyclohexane-1-carboxamido)propanamido)thiazole-5-carboxylate]
HSET inhibitory activity (in words): ablated the activity
IC50 [3]: > 200 µM

CCOC(=O)c1sc(NC(=O)CCNC(=O)c2ccccc2C)nc1C [Compound 3, Ethyl 4-methyl-2-(3-(2-methylbenzamido)propanamido)thiazole-5-carboxylate]
inhibition at 200 µM (200μM compound, 3 μM ATP, single determination): 52%
fold reduction in HSET potency (relative to 2): seventy-fold

CCOC(=O)c1sc(NC(=O)C[C@@H](C)NC(=O)c2cccc(-c3noc(C)n3)c2)nc1C [Compound 31, Ethyl 4-Methyl-2-[[(3R)-3-[[3-(5-methyl-1,2,4-oxadiazol-3-yl)benzoyl]amino]butanoyl]amino]thiazole-5-carboxylate]
LE [4]: 0.29
LLE [5]: 3.4
IC50 [6]: 0.288 µM

CCOC(=O)c1sc(NC(=O)CCN(C)C(=O)c2cccc(-c3noc(C)n3)c2)nc1C [Compound 24, Ethyl 4-Methyl-2-(3-(N-methyl-3-(5-methyl-1,2,4-oxadiazol-3-yl)benzamido)propanamido)thiazole-5-carboxylate]
LE [4]: 0.19
LLE [5]: 2.1
IC50 [6]: 44.4 µM
fold reduction in HSET potency (relative to 13): 700 fold

CCOC(=O)c1sc(NC(=O)CCNC(=O)c2cccc(-c3noc(CC)n3)c2)nc1C [Compound 14, Ethyl 2-(3-(3-(5-Ethyl-1,2,4-oxadiazol-3-yl)benzamido)propanamido)-4-methylthiazole-5-carboxylate]
LE [1]: 0.25
LLE [2]: 2.8
IC50 [3]: 2.1 µM
fold reduction in HSET potency (relative to 13): 33 fold

CCOC(=O)c1sc(NC(=O)CCNC(=O)c2cccc(CC)c2)nc1C [Compound 5, Ethyl 2-(3-(3-Ethylbenzamido)propanamido)-4-methylthiazole-5-carboxylate]
LE [1]: 0.29
LLE [2]: 2.2
IC50 [3]: 2.32 µM

CCOC(=O)c1ccc(NC(=O)CCNC(=O)c2cccc(-c3noc(C)n3)c2)nc1C [Compound 27, Ethyl 2-Methyl-6-(3-(3-(5-methyl-1,2,4-oxadiazol-3-yl)benzamido)propanamido)nicotinate]
LE [4]: 0.22
LLE [5]: 2.5
IC50 [6]: 11.5 µM
fold reduction in HSET potency (relative to 13): greater than 180 fold

CCOC(=O)c1sc(NC(=O)CCNC(=O)c2cccc(Cl)c2)nc1C [Compound 6, Ethyl 2-(3-(3-Chlorobenzamido)propanamido)-4-methylthiazole-5-carboxylate]
HSET inhibitory activity (in words): ablated the activity
IC50 [3]: > 200 µM

CCOC(=O)c1sc(NC(=O)CCCNC(=O)c2cccc(-c3noc(C)n3)c2)nc1C [Compound 22, Ethyl 4-Methyl-2-(4-(3-(5-methyl-1,2,4-oxadiazol-3-yl)benzamido)butanamido)thiazole-5-carboxylate]
HSET inhibitory activity (in words): abolished the HSET activity
IC50 [6]: > 200 µM

CCOC(=O)c1sc(NC(=O)CCNC(=O)c2cccc(OC)c2)nc1C [Compound 11, Ethyl 2-(3-(3-Methoxybenzamido)propanamido)-4-methylthiazole-5-carboxylate]
LE [1]: 0.28
LLE [2]: 2.8
IC50 [3]: 3.54 µM
